Columns and labels:
[1] = target: T1, AChE (source Electric eel) (Electrophorus electricus, UniProt O42275); test: biochemical
T1 construct: from tissue
Protocol: The cholinesterase inhibitory potentials of our synthesized compounds were evaluated against cholinesterase enzymes (AChE/BChE). The AChE (source Electric eel) and BChE (source equine serum) were used in the study following previously published Ellman's assay. The assay basic principle involves the hydrolytic breakdown of acetylthiocholine iodide (ATChI) by AChE and butyryl thiocholine iodide (BTChI) by BChE enzymes, leading to the formation of an intermediate compound which is subsequently complexed with 5,5-dithio bis nitrobenzoic acid (DTNB) to form a UV-detectable compound. The yellowish color product indicates the hydrolysis of ATChI and BTChI substrates by respective enzymes, which were analyzed at 412 nm using a UV-visible spectrophotometer. […] A test sample of 1000 µl was taken in a cuvette, to which enzyme solution (50 µl) and DTNB reagent of 50 µL were added. The AChE (0.03 U/ml) and BChE (0.01 U/ml) solutions were prepared in 0.1 M phosphate buffer having pH 8.0. The ATChI and BTChI substrate solutions (0.0005 M) and 0.0002273 M solution of DTNB were prepared using distilled water and stored at 8°C before further use. For 15 minutes, the solution mixture was incubated at 30 °C, after which a solution of the substrate (50 µl) was added and then subjected to spectroscopic analysis. Using a double beam spectrophotometer, the sample absorbance was measured for 4 minutes at 412 nm beside the time of reaction. […] All values were taken in triplicate under the same conditions.
Enzymatic activity percentage=V/Vmaxx100
V is the reaction rate in the inhibitor's presence, whereas Vmax is the reaction rate in the absence of the inhibitor.

[2] = test system: scopolamine-induced amnesic mice; test: Y-Maze test in scopolamine-induced amnesic animals; assay type: in vivo, albino mice; settings: scopolamine 1 mg/kg amnesic mice, i.p., AN-1 10 mg/kg, progesterone 10 mg/kg, galantamine 8 mg/kg, disease group 22.27%
Protocol: The mice were divided into the following five groups, and each group had six animals. The standard drug and test samples were carefully administered to the mice via the intraperitoneal route.
Group IV (Progesterone treated group) = Animals treated with 10 mg/kg progesterone and scopolamine 1 mg/kg.
Group V (Test compound group) = Animals received 10 mg/kg progesterone derivative (AN-1) and 1 mg/kg scopolamine.
To determine the effect of synthesized compounds on short-term learning and memory of experimental mice, a Y-Maze test was used. The Y-Maze apparatus consists of three arms that are fixed at 120° angle from each other and have 30 cm length, 20 cm height, and 8 cm width dimensions. After 30 minutes of giving test compounds intraperitoneally, the mouse was positioned at the arm end in such a way that it faced away from the midpoint of the apparatus and was permitted to search the apparatus for five minutes freely. The arm entry sequence and number by each mouse were recorded for 5 minutes using a digital camera. Alternation is defined as the successive entry into 3 dissimilar arms by a mouse (i.e., CBA, BCA, ABC). When the back paws of a mouse were found inside an arm wholly, the arm entry was considered completed. Seventy percent v/v ethanol was used for cleaning the apparatus and to avoid smell cues. The spontaneous alternation performance (SAP) percentage was calculated using the following formula [37]:
% alternation = [(alternations number) / (total arm entries number – 2)] × 100

T1 sequence (O42275 24-633): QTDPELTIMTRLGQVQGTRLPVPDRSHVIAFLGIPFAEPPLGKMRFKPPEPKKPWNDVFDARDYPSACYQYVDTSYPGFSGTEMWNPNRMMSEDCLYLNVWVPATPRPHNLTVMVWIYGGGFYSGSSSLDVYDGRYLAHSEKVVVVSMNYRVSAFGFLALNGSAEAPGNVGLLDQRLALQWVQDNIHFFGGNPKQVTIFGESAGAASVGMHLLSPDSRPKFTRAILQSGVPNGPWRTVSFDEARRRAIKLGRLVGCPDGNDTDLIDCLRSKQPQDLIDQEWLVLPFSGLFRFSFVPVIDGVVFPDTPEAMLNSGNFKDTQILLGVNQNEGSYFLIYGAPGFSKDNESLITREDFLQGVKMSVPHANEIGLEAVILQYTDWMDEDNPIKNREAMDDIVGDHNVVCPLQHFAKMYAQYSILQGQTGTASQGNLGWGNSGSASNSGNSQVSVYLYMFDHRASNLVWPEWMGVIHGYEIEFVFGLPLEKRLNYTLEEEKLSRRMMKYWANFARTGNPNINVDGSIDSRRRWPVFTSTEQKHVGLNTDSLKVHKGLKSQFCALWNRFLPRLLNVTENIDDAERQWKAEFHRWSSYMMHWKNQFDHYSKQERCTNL

COc1ccc(C/N=C(/C)[C@H]2CC[C@H]3[C@@H]4CCC5=CC(=O)CC[C@]5(C)[C@H]4CC[C@]23C)cc1 [AN1, (8S,9S,10R,13S,14S)-17-((Z)-1-((4-methoxybenzyl)imino)ethyl)-10,13-dimethyl-1,2,6,7,8,9,10,11,12,13,14,15,16,17-tetradecahydro-3H-cyc-lopenta[a]phenanthren-3-one]
IC50 [1]: 56.5 µM
inhibition at 125 µg/mL ([1]; read-out: % AChE Inhibition): 69.4%
inhibition at 250 µg/mL ([1]; read-out: % AChE Inhibition): 76.3%
inhibition at 500 µg/mL ([1]; read-out: % AChE Inhibition): 83.2%
inhibition at 1000 µg/mL ([1]; read-out: % AChE Inhibition): 88.9 ± 1.2%
spontaneous alternation [2]: 42.72 ± 9.41%
spontaneous alternation ([2]; listed as AN-1): 42.72%

Reference: paper PMC12645137 (Current Neuropharmacology, 2025)
